{
  "source": "patent US20190223483A1",
  "about": "“SENSORY MODIFIER COMPOUNDS” (CARGILL, INCORPORATED, priority 2017, published 2019)",
  "key": {"[1]": {"test": "Roundtable assessment of sweetness linger (scale 0 to 6)", "format": "in vivo", "set-up": "key: 0 = none; 1 = trace/faint; 2 = slight; 3 = moderate; 4 = definite; 5 = strong; 6 = extreme", "method": "In some aspects, the amount of sensory modifier compound effective to […] can be determined by panel testing with trained panelists. For example, sweetness linger can be determined by the following test: For other sweetness attributes, the solutions were tested by a panel of at least four individuals that are highly-trained in tasting steviol glycoside solutions. The highly-trained panelists used a roundtable methodology to assess each sweetness attribute. To test each solution, the highly-trained panelists dispensed approximately 2 mL of each solution into their own mouths by transfer pipet, dispersed the solution by moving their tongues, and recorded a value for the particular sweetness attribute being tested. Between tasting solutions, the panelists were able to cleanse their palates with water. For each sweetness attribute, the panelist agreed on a descriptive scale with relative intensities assigned for each sweetness attribute and then recorded the values for each sweetness attribute against this. For example, this roundtable assessment of sweetness linger assigned a scale of 0 to 6 with a score of 0 indicating no sweetness linger and a score of 6 indicating extreme sweetness linger. Roundtable assessment of sweetness linger assigned a scale of 0 to 6 with a score of 0 indicating no sweetness linger and a score of 6 indicating extreme sweetness linger (0=none, 1=trace, 2=slight, 3=moderate, 4=definite, 5=strong, 6=extreme). Roundtable assessment of rounded assigned a scale of 0 to 3 with a score of 0 indicating spikey and a score of 3 indicating desirable rounded (0=none, 1=mostly spikey, some rounded, 2=mostly rounded, some spikey, 3=rounded). Roundtable assessment of mouthfeel assigned a scale of 0 to 2 with a score of 0 indicating water and a score of 2 indicating syrupy (0=water, 1=sucrosey, 2=syrupy). Roundtable assessment of bitterness assigned a scale of 0 to 6 with a score of 0 indicating no bitterness and a score of 6 indicating extreme sweetness linger (0=none, 1=trace, 2=slight, 3=moderate, 4=definite, 5=strong, 6=extreme). Roundtable assessment of off tastes assigned a scale of 0 to 6 with a score of 0 indicating no bitterness and a score of 6 indicating extreme off tastes (0=none, 1=trace, 2=slight, 3=moderate, 4=definite, 5=strong, 6=extreme). […] Roundtable assessment of botanical notes assigned a scale of 0 to 5 with a score of 0 indicating no botanical notes and a score of 5 indicating strong (0=none, 1=trace, 2=slight, 3=moderate, 4=definite, 5=strong). Exemplary tests are recorded below in Example 1.\nFor other sweetness attributes, the solutions were tested by a panel of at least four individuals that are highly-trained in tasting steviol glycoside solutions. The highly-trained panelists used a roundtable methodology to assess each sweetness attribute. To test each solution, the highly-trained panelists dispensed approximately 2 mL of each solution into their own mouths by transfer pipet, dispersed the solution by moving their tongues, and recorded a value for the particular sweetness attribute being tested. Between tasting solutions, the panelists were able to cleanse their palates with water. For each sweetness attribute, the panelist agreed on a descriptive scale with relative intensities assigned for each sweetness attribute and then recorded the values for each sweetness attribute against this. For example, this roundtable assessment of sweetness linger assigned a scale of 0 to 6 with a score of 0 indicating no sweetness linger and a score of 6 indicating extreme sweetness linger. Roundtable assessment of sweetness linger assigned a scale of 0 to 6 with a score of 0 indicating no sweetness linger and a score of 6 indicating extreme sweetness linger (0=none, 1=trace, 2=slight, 3=moderate, 4=definite, 5=strong, 6=extreme). […]"}, "[2]": {"test": "Roundtable assessment of astringency", "format": "in vivo", "set-up": "key: 0 = none; 1 = trace/faint; 2 = slight; 3 = moderate; 4 = definite; 5 = strong; 6 = extreme", "experimental": "Solutions of steviol glycosides and sensory modifier compound were prepared at increasing ratios of sensory modifier to steviol glycoside by weight. […] The concentration of steviol glycosides was 700 ppm in each solution. The solutions were tested for astringency."}, "[3]": {"settings": "steviol glycoside 700 ppm + yerba mate mono/dicaffeoylquinic acids 270 ppm"}, "[4]": {"settings": "steviol glycoside 700 ppm + yerba mate mono/dicaffeoylquinic acids 540 ppm"}, "[5]": {"settings": "steviol glycoside 700 ppm + yerba mate mono/dicaffeoylquinic acids 810 ppm"}, "[6]": {"settings": "steviol glycoside 700 ppm, sensory modifier 0 ppm"}, "[7]": {"settings": "steviol glycoside 700 ppm + yerba mate mono/dicaffeoylquinic acids 630 ppm"}, "[8]": {"settings": "steviol glycoside 700 ppm + yerba mate mono/dicaffeoylquinic acids 946 ppm"}, "[9]": {"settings": "steviol glycoside 700 ppm + yerba mate mono/dicaffeoylquinic acids […]"}, "[10]": {"settings": "RebM 700 ppm + cichoric acid (tartaric backbone) 514 ppm"}, "[11]": {"settings": "RebM 700 ppm + cichoric acid (tartaric backbone) 772 ppm"}, "[12]": {"settings": "RebM 700 ppm + cichoric acid (tartaric backbone) […]"}, "[13]": {"settings": "RebM 700 ppm + rosmarinic acid 195 ppm"}, "[14]": {"settings": "RebM 700 ppm + rosmarinic acid 391 ppm"}, "[15]": {"settings": "RebM 700 ppm + rosmarinic acid 586 ppm"}, "[16]": {"settings": "steviol glycoside 700 ppm + yerba mate mono/dicaffeoylquinic acids 236 ppm"}, "[17]": {"settings": "steviol glycoside 700 ppm + yerba mate mono/dicaffeoylquinic acids 300 ppm"}, "[18]": {"settings": "steviol glycoside 700 ppm + yerba mate mono/dicaffeoylquinic acids 400 ppm"}, "[19]": {"settings": "steviol glycoside 700 ppm + yerba mate mono/dicaffeoylquinic acids 472 ppm"}, "[20]": {"settings": "steviol glycoside 700 ppm + yerba mate mono/dicaffeoylquinic acids 500 ppm"}, "[21]": {"settings": "steviol glycoside 700 ppm + yerba mate mono/dicaffeoylquinic acids 600 ppm"}, "[22]": {"settings": "steviol glycoside 700 ppm + yerba mate mono/dicaffeoylquinic acids 700 ppm"}, "[23]": {"settings": "steviol glycoside 700 ppm + yerba mate mono/dicaffeoylquinic acids 708 ppm"}, "[24]": {"settings": "steviol glycoside 700 ppm + yerba mate mono/dicaffeoylquinic acids 800 ppm"}},
  "note": "Where “and” joins values, the source holds several entries; their conditions need not be identical. Identical values can stand only once. Entries after “also recorded” stand apart in the source; their conditions may differ.",
  "data": [
    {"molecule": "C=C1C[C@@]23CC[C@H]4[C@@](C)(CCC[C@@]4(C)C(=O)O[C@@H]4O[C@H](CO)[C@@H](O)[C@H](O)[C@H]4O[C@@H]4O[C@H](CO)[C@@H](O)[C@H](O)[C@H]4O)[C@@H]2CC[C@]1(O[C@@H]1O[C@H](CO)[C@@H](O)[C@H](O[C@@H]2O[C@H](CO)[C@@H](O)[C@H](O)[C@H]2O)[C@H]1O[C@@H]1O[C@H](CO)[C@@H](O)[C@H](O)[C@H]1O)C3", "note": "[RebD, Rebaudioside D]", "values": [
      {"measurement": "Sweetness linger", "setting": "[1]; [3]", "value": 3},
      {"measurement": "Sweetness linger", "setting": "[1]; [4]", "value": 2},
      {"measurement": "Sweetness linger", "setting": "[1]; [5]", "value": 1},
      {"measurement": "Sweetness linger", "setting": "[1]; steviol glycoside 700 ppm, about 200 ppm sensory modifier", "value": "reduced to commercially palatable levels"},
      {"measurement": "Sweetness linger", "setting": "[1]; [6]", "value": 3},
      {"measurement": "Astringency", "setting": "[2]; [3]", "value": 2},
      {"measurement": "Astringency", "setting": "[2]; [4]", "value": 1},
      {"measurement": "Astringency", "setting": "[2]; [5]", "value": 2},
      {"measurement": "Astringency", "setting": "[2]; [6]", "value": "Not observed"}
    ]},
    {"molecule": "C=C1C[C@@]23CC[C@H]4[C@@](C)(CCC[C@@]4(C)C(=O)O[C@@H]4O[C@H](CO)[C@@H](O)[C@H](O)[C@H]4O)[C@@H]2CC[C@]1(O[C@@H]1O[C@H](CO)[C@@H](O)[C@H](O[C@@H]2O[C@H](CO)[C@@H](O)[C@H](O)[C@H]2O)[C@H]1O[C@@H]1O[C@H](CO)[C@@H](O)[C@H](O)[C@H]1O)C3", "note": "[RebA, Rebaudioside A]", "values": [
      {"measurement": "Sweetness linger", "setting": "[1]; [7]", "value": "Not observed"},
      {"measurement": "Sweetness linger", "setting": "[1]; [8]", "value": "Not observed"},
      {"measurement": "Sweetness linger", "setting": "[1]; [9]", "value": "Not observed"},
      {"measurement": "Sweetness linger", "setting": "[1]; [6]", "value": "Not observed"},
      {"measurement": "Astringency", "setting": "[2]; [7]", "value": 1},
      {"measurement": "Astringency", "setting": "[2]; [8]", "value": 3},
      {"measurement": "Astringency", "setting": "[2]; [9]", "value": "Not observed"},
      {"measurement": "Astringency", "setting": "[2]; [6]", "value": "Not observed"}
    ]},
    {"molecule": "C=C1C[C@@]23CC[C@H]4[C@@](C)(CCC[C@@]4(C)C(=O)O[C@@H]4O[C@H](CO)[C@@H](O)[C@H](O[C@@H]5O[C@H](CO)[C@@H](O)[C@H](O)[C@H]5O)[C@H]4O[C@@H]4O[C@H](CO)[C@@H](O)[C@H](O)[C@H]4O)[C@@H]2CC[C@]1(O[C@@H]1O[C@H](CO)[C@@H](O)[C@H](O[C@@H]2O[C@H](CO)[C@@H](O)[C@H](O)[C@H]2O)[C@H]1O[C@@H]1O[C@H](CO)[C@@H](O)[C@H](O)[C@H]1O)C3", "note": "[RebM, Rebaudioside M]", "values": [
      {"measurement": "Sweetness linger", "setting": "[1]; 1:1 molar ratio with tartaric acid backbone modifier", "value": "no perceptible linger"},
      {"measurement": "Sweetness linger", "setting": "[1]; 1:2 molar ratio with quinic acid backbone modifier", "value": "no perceptible linger"},
      {"measurement": "Sweetness linger", "setting": "[1]; [10]", "value": 0},
      {"measurement": "Sweetness linger", "setting": "[1]; [11]", "value": 0},
      {"measurement": "Sweetness linger", "setting": "[1]; [12]", "value": 0},
      {"measurement": "Sweetness linger", "setting": "[1]; [13]", "value": 6},
      {"measurement": "Sweetness linger", "setting": "[1]; [14]", "value": 3},
      {"measurement": "Sweetness linger", "setting": "[1]; [15]", "value": 2},
      {"measurement": "Sweetness linger", "setting": "[1]; RebM 700 ppm, above about 300 ppm quinic backbone modifier", "value": "not perceptible"},
      {"measurement": "Sweetness linger", "setting": "[1]; RebM 700 ppm, at or before about 200 ppm quinic backbone modifier", "value": "slight"},
      {"measurement": "Sweetness linger", "setting": "[1]; [16]", "value": 2},
      {"measurement": "Sweetness linger", "setting": "[1]; [17]", "value": 2},
      {"measurement": "Sweetness linger", "setting": "[1]; [18]", "value": 0},
      {"measurement": "Sweetness linger", "setting": "[1]; [19]", "value": 0},
      {"measurement": "Sweetness linger", "setting": "[1]; [20]", "value": 0},
      {"measurement": "Sweetness linger", "setting": "[1]; [21]", "value": 0},
      {"measurement": "Sweetness linger", "setting": "[1]; [22]", "value": "0 and 2"},
      {"measurement": "Sweetness linger", "setting": "[1]; [23]", "value": 0},
      {"measurement": "Sweetness linger", "setting": "[1]; [24]", "value": 0},
      {"measurement": "Sweetness linger", "setting": "[1]; [6]", "value": 6},
      {"measurement": "Astringency", "setting": "[2]; [10]", "value": 0},
      {"measurement": "Astringency", "setting": "[2]; [11]", "value": 4},
      {"measurement": "Astringency", "setting": "[2]; [12]", "value": 0},
      {"measurement": "Astringency", "setting": "[2]; [13]", "value": 0},
      {"measurement": "Astringency", "setting": "[2]; [14]", "value": 0},
      {"measurement": "Astringency", "setting": "[2]; [15]", "value": 0},
      {"measurement": "Astringency", "setting": "[2]; RebM 700 ppm, 0 ppm to 700 ppm of quinic backbone modifier", "value": "no perceptible astringency; also recorded: imperceptible"},
      {"measurement": "Astringency", "setting": "[2]; [16]", "value": 0},
      {"measurement": "Astringency", "setting": "[2]; [17]", "value": "Not observed"},
      {"measurement": "Astringency", "setting": "[2]; [18]", "value": "Not observed"},
      {"measurement": "Astringency", "setting": "[2]; [19]", "value": 0},
      {"measurement": "Astringency", "setting": "[2]; [20]", "value": 0},
      {"measurement": "Astringency", "setting": "[2]; [21]", "value": "Not observed"},
      {"measurement": "Astringency", "setting": "[2]; [22]", "value": "Not observed"},
      {"measurement": "Astringency", "setting": "[2]; [23]", "value": 0},
      {"measurement": "Astringency", "setting": "[2]; [24]", "value": "Not observed"},
      {"measurement": "Astringency", "setting": "[2]; [6]", "value": 0}
    ]}
  ]
}
